Assay results published in PubChem BioAssay (NCI).
Where “and” joins values, the source holds several entries; their conditions need not be identical. Identical values can stand only once.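 Step 1: Grow cells in 96-well plates. Step 2: Expose to compound for 48 hours at 5 concentrations. Step 3: Interpolate endpoints linearly; if unreached, use highest concentration. The concentration for 50% growth inhibition is given as GI50. TGI denotes the concentration required for complete inhibition of growth.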

What was measured:
Experiment in all cases: NCI tumour cell line growth inhibition, 48 h
COLO 205 colon = test system: COLO 205 colon
OVCAR-4 ovarian = test system: OVCAR-4 ovarian
SK-OV-3 ovarian = test system: SK-OV-3 ovarian
SF-539 CNS = test system: SF-539 CNS
RXF 393 renal = test system: RXF 393 renal
A498 renal = test system: A498 renal
UACC-62 melanoma = test system: UACC-62 melanoma
MOLT-4 leukemia = test system: MOLT-4 leukemia
MCF7 breast = test system: MCF7 breast
T-47D breast = test system: T-47D breast

Row | Structure (SMILES) | TGI (COLO 205 colon) | TGI (OVCAR-4 ovarian) [µM] | TGI (SK-OV-3 ovarian) [µM] | TGI (SF-539 CNS) [µM] | TGI (RXF 393 renal) [µM] | TGI (A498 renal) [µM] | TGI (UACC-62 melanoma) [µM] | TGI (MOLT-4 leukemia) [µM] | GI50 (COLO 205 colon) [µM] | GI50 (OVCAR-4 ovarian) [µM] | GI50 (SK-OV-3 ovarian) [µM] | GI50 (MCF7 breast) [µM] | TGI (MCF7 breast) [µM] | GI50 (SF-539 CNS) [µM] | GI50 (A498 renal) [µM] | GI50 (UACC-62 melanoma) [µM] | GI50 (T-47D breast) [µM] | TGI (T-47D breast) [µM] | GI50 (RXF 393 renal) [µM] | GI50 (MOLT-4 leukemia)
1 | O=C(CC1=Nc2nnc(-c3nnc4n3C(=O)C(CC(=O)C3CC3)=N4)n2C1=O)C1CC1 | > 100 µM | > 100 | > 100 | > 100 | > 100 | > 100 | > 100 | > 100 |  |  |  |  |  |  |  |  |  |  |  | 
2 | COc1ccc(-c2cc(-c3ccccc3)nc(NCCNc3ccnc4cc(Cl)ccc34)n2)cc1 | 3.83 µM | 3.71 | 3.34 | 3.33 |  | 3.16 | 3.52 |  | 1.84 | 1.93 | 1.78 | 1.53 | 3.42 | 1.86 | 1.63 | 1.84 | 0.812 | 2.61 |  | 
3 | Cn1ccnc1C(=O)/C=C/c1ccc(C(=O)Nc2c(F)c(F)c(F)c(F)c2F)cc1 | 3.63 µM | 4.52 | 10.1 | 3.13 | 3.22 | 3.16 | 5.17 | 4.81 | 1.82 | 1.53 | 3.24 |  |  | 1.67 | 1.36 | 2.08 | 1.29 | 3.4 | 1.66 | 1.91 µM
4 | COc1cc(OC)cc(-c2ccc(-c3ccc(C(=N)N)cn3)s2)c1 | 4.62 µM | 3.64 | 26.2 | 3.13 | 3.34 |  | 3.54 | 6.39 | 2.11 | 1.9 | 11.3 | 1.77 | 3.6 | 1.71 |  | 1.85 | 2.1 | 5.09 | 1.83 | 2.55 µM
5 | Cc1ccnc(Nc2ccc([N+](=O)[O-])c(NCCN3CCOCC3)n2)c1 | 0.0417 µM and 0.0333 µM |  | 64.7 |  |  | 0.22 | 18.3 | > 100 | 0.00502 | 0.0151 | 0.00804 | 0.00334 | 20.5 |  | 0.00325 | 0.00382 | 26.1 | 74.9 |  | 0.0304 µM and 0.0356 µM
6 | OCC(O)C(O)C(O)C(O)c1nn[nH]n1 (stereo not given) | > 100 µM | > 100 | > 100 | > 100 |  |  | > 100 | > 100 |  |  |  |  |  |  |  |  |  |  |  | 
7 | O=C1CCS/C(=N/S(=O)(=O)c2ccc(N3N=C4c5ccccc5CC4C3c3cccs3)cc2)N1Cc1ccccc1 (stereo not given) | > 100 µM | > 100 | 79.6 | 44.4 | 63.9 |  | 32.3 | > 100 | 36.8 | 49.3 | 32.9 | > 100 | > 100 | 21.8 |  | 16.7 | 45.6 | > 100 | 21.2 | 47 µM
8 | COc1ccc(/C(C)=C(\c2ccc(Cl)cc2)c2ccc(OCCN3CCCCCC3)cc2)cc1F | 7.47 µM | 8.09 | 16.6 | 4.39 | 5.17 |  | 8.02 | 11.8 | 1.62 | 2.63 | 5.05 | 3.59 | 11.1 | 2.18 |  | 3.52 | 3.47 | 15.1 | 2.55 | 3.91 µM
9 | NNC(=O)N/N=C1\CN(c2ccc(Cl)cc2Cl)C(=O)C(=O)C1c1nc2ccccc2o1 (stereo not given) | > 100 µM | > 100 | > 100 | > 100 |  | > 100 | > 100 | > 100 |  |  |  |  |  |  |  |  |  |  |  | 
10 | COc1ccc(C(=O)O/N=C2/CCCCC2CN(C)C)cc1 (stereo not given) | > 100 µM | > 100 | > 100 | > 100 | > 100 | > 100 | > 100 | > 100 |  |  |  |  |  |  |  |  |  |  |  | 
11 | C#Cc1cccc(NC(=O)C2CCCN(C(=O)CCl)C2)c1 (stereo not given) | 45 µM | 52.8 | > 82.5 | > 82.5 | > 82.5 |  | > 82.5 | 75.1 | 21.5 | 19.5 | > 82.5 | > 82.5 | > 82.5 | > 82.5 |  | > 82.5 | > 82.5 | > 82.5 | > 82.5 | 23.4 µM
12 | COc1cc(CCc2ccc(OC(C)=O)cc2)cc(OC)c1OC | > 100 µM | > 100 |  | > 100 | > 100 | > 100 | > 100 | > 100 |  |  |  |  |  |  |  |  |  |  |  | 
13 | COc1cc2cc3c(c(O)c2c(O)c1-c1c(OC)cc2cc4c(c(O)c2c1O)C(=O)O[C@H](C)C4)C(=O)O[C@H](C)C3 | 78.7 µM | > 100 | 84 |  | > 100 |  | 32.5 | > 100 | 27.2 | 22.4 | 26.5 |  |  |  |  | 17.1 | 23.3 | 57.2 | 24.4 | > 100 µM
14 | O=C(/C(=C/c1ccc(O)cc1)c1ccccc1)c1ccccc1 | 32.8 µM | 55.2 | 40.2 | 30.3 |  | 32 | 27.1 | 37.3 |  |  |  |  |  |  |  |  |  |  |  | 
15 | COCC1N=C(c2cc(OC)c(OC)c(OC)c2-c2cc3c(cc2[C@H](C)O)OCO3)O[C@H]1c1ccccc1 (stereo not given in full) | 85.2 µM | > 100 | > 100 | > 100 |  |  | > 100 | > 100 |  |  |  |  |  |  |  |  |  |  |  | 
16 | Nc1nc(=S)[nH]c(C(=O)Nc2nccs2)c1-c1ccccc1 | > 100 µM | > 100 | > 100 | > 100 | > 100 | > 100 | > 100 | > 100 |  |  |  |  |  |  |  |  |  |  |  | 
17 | OCCCCC#Cc1ccccc1C#Cc1ccc(C(F)(F)F)cc1 | 33 µM | 23.9 | 34 | 37.2 |  | 28.6 | 29.8 | 31.4 | 17.4 | 11.2 | 18.5 | 33.3 | 85.6 | 19.7 | 15 | 16 | 15.9 | 33.9 |  | 13.6 µM
